US10947215B2, “Heteroaryl compounds and their use as therapeutic drugs” (Dong-A Socio Holdings Co., Ltd., priority 2015, dated 2021)

Test system: Ba/F3-CDM cells (Ba/F3 transfected with CD8-MerTK)
Experiment: In cell MER kinase assay, Ba/F3-CDM cell proliferation without IL-3 (Celltiter-Glo, GI50)
Assay type: cell-based, murine
Conditions: 48 hours, read-out: Cell growth inhibition (GI50)
Description: In Cell MER Kinase Assay Using BaF3 Cellular System
To establish an in cell kinase assay for MerTK kinase, the IL-3 dependent Ba/F3 cells of murine lymphoid origin was transfected with CD8-MerTK. […] For a routine cellular assay, Ba/F3-CDM cells were seeded at 2,000 cells per well in 384-well cell culture plate containing DMEM/10% FBS culture media and incubated for 24 hours before addition of compounds pre-diluted in culture media. Following compound treatment, cells were further incubated for 48 hours and the proliferation was measured. To discriminate a Ba/F3 growth inhibition by a specific inhibition of MerTK kinase following compound treatment vs growth inhibition due to a non-specific unintended cytotoxicity of compounds, we routinely carried out control sets of Ba/F3 cells in parallel that grown in IL3-supplemented growth media. In the presence of IL-3, the proliferation of Ba/F3 is no longer dependent on the MerTK activity. Cell growth and proliferation was measured with Celltiter-Glo™ system (Promega, USA) according to the manufacturer's instruction. The half-maximal growth inhibitory concentration (GI50) value was calculated with Prism6.0 software (GraphPad, USA).

Cc1cccc(C)c1CO[C@H]1CCC[C@@H]1NC(=O)c1cc(-c2cnn(C)c2)cnc1N [Example 15, 2-amino-N-((1S,2S)-2-((2,6-dimethylbenzyl)oxy)cyclopentyl)-5-(1-methyl-1H-pyrazol-4-yl)nicotinamide]
GI50: > 1000 nM

CCc1cc(CO[C@H]2CCC[C@@H]2NC(=O)c2cc(-c3cnn(C)c3)cnc2N)ccc1C [Example 21]
GI50: > 1000 nM

CN(C)c1ccc(-c2ccc(CO[C@H]3CCC[C@@H]3NC(=O)c3cc(-c4cnn(C)c4)cnc3N)cc2)cc1 [Example 137, 2-amino-N-((1S,2S)-2-((4′-(dimethylamino)-[1,1′-biphenyl]-4-yl)methoxy)cyclopentyl)-5-(1-methyl-1H-pyrazol-4-yl)nicotinamide]
GI50: < 100 nM

Cn1cc(-c2cnc(N)c(C(=O)N[C@H]3CCC[C@@H]3OCc3ccc(-c4ccc(CCN)cc4)cc3)c2)cn1 [Example 145, 2-amino-N-((1S,2S)-2-((4′-(2-aminoethyl)-[1,1′-biphenyl]-4-yl)methoxy)cyclopentyl)-5-(1-methyl-1H-pyrazol-4-yl)nicotinamide]
GI50: > 1000 nM

CN1CCN(c2ccc(-c3ccc(CO[C@H]4CCC[C@@H]4NC(=O)c4cc(-c5cnn(C)c5)cnc4N)cc3)cc2)CC1 [Example 146, 2-amino-5-(1-methyl-1H-pyrazol-4-yl)-N-((1S,2S)-2-((4′-(4-methylpiperazin-1-yl)-[1,1′-biphenyl]-4-yl)methoxy)cyclopentyl)nicotinamide]
GI50: < 100 nM

CN1CCN(c2ccc(-c3ccc(CO[C@H]4CCC[C@@H]4NC(=O)c4cc(-c5cnn(C)c5)cnc4N)cc3)cn2)CC1 [Example 148, 2-amino-5-(1-methyl-1H-pyrazol-4-yl)-N-((1S,2S)-2-((4-(6-(4-methylpiperazin-1-yl)pyridin-3-yl)benzyl)oxy)cyclopentyl)nicotinamide]
GI50: > 1000 nM

CN1CCN(Cc2ccc(-c3ccc(CO[C@H]4CCC[C@@H]4NC(=O)c4cc(-c5cnn(C)c5)cnc4N)c(F)c3)cc2)CC1 [Example 156, 2-amino-N-((1S,2S)-2-((3-fluoro-4′-((4-methylpiperazin-1-yl)-methyl)-[1,1′-biphenyl]-4-yl)methoxy)cyclopentyl)-5-(1-methyl-1H-pyrazol-4-yl)-nicotinamide]
GI50: < 100 nM

CN1CCN(CCc2ccc(-c3ccc(CO[C@H]4CCC[C@@H]4NC(=O)c4cc(-c5cnn(C)c5)cnc4N)cc3)cc2)CC1 [Example 161, 2-amino-5-(1-methyl-1H-pyrazol-4-yl)-N-((1S,2S)-2-((4′-(2-(4-methylpiperazin-1-yl)ethyl)-[1,1′-biphenyl]-4-yl)methoxy)cyclopentyl)nicotinamide]
GI50: < 100 nM

Cn1cc(-c2cnc(N)c(C(=O)N[C@H]3CCC[C@@H]3OCc3ccc(-c4ccc(CN5CCC(O)CC5)cc4)cc3)c2)cn1 [Example 180, 2-amino-N-((1S,2S)-2-((4′-((4-hydroxypiperidin-1-yl)methyl)-[1,1′-biphenyl]-4-yl)methoxy)cyclopentyl)-5-(1-methyl-1H-pyrazol-4-yl)nicotinamide]
GI50: > 1000 nM

Cn1cc(-c2cnc(N)c(C(=O)N[C@H]3CCC[C@@H]3OCc3ccc(-c4ccc(CN5CCN(CCO)CC5)cc4)cc3)c2)cn1 [Example 181, 2-amino-N-((1S,2S)-2-((4′-((4-(2-hydroxyethyl)piperazin-1-yl)-methyl)-[1,1′-biphenyl]-4-yl)methoxy)cyclopentyl)-5-(1-methyl-1H-pyrazol-4-yl)-nicotinamide]
GI50: < 100 nM

Cn1cc(-c2cnc(N)c(C(=O)N[C@H]3CCC[C@@H]3OCc3ccc(-c4ccc(CN5CCN(CC(C)(C)O)CC5)cc4)cc3)c2)cn1 [Example 182, 2-amino-N-((1S,2S)-2-((4′-((4-(2-hydroxy-2-methylpropyl)-piperazin-1-yl)methyl)-[1,1′-biphenyl]-4-yl)methoxy)cyclopentyl)-5-(1-methyl-1H-pyrazol-4-yl)nicotinamide]
GI50: < 100 nM

CCN1CCN(Cc2ccc(-c3ccc(CO[C@H]4CCC[C@@H]4NC(=O)c4cc(-c5cnn(C)c5)cnc4N)cc3)cc2)CC1 [Example 183, 2-amino-N-((1S,2S)-2-((4′-((4-ethylpiperazin-1-yl)methyl)-[1,1′-biphenyl]-4-yl)methoxy)cyclopentyl)-5-(1-methyl-1H-pyrazol-4-yl)nicotinamide]
GI50: < 100 nM

Cn1cc(-c2cnc(N)c(C(=O)N[C@H]3CCC[C@@H]3OCc3ccc(-c4ccc(CN5CCN(C6CC6)CC5)cc4)cc3)c2)cn1 [Example 184, 2-amino-N-((1S,2S)-2-((4′-((4-cyclopropylpiperazin-1-yl)methyl)-[1,1′-biphenyl]-4-yl)methoxy)cyclopentyl)-5-(1-methyl-1H-pyrazol-4-yl)nicotinamide]
GI50: < 100 nM

C[C@@H]1CN(Cc2ccc(-c3ccc(CO[C@H]4CCC[C@@H]4NC(=O)c4cc(-c5cnn(C)c5)cnc4N)cc3)cc2)CCN1C [Example 186, 2-amino-N-((1S,2S)-2-((4′-(((R)-3,4-dimethylpiperazin-1-yl)-methyl)-[1,1′-biphenyl]-4-yl)methoxy)cyclopentyl)-5-(1-methyl-1H-pyrazol-4-yl)-nicotinamide]
GI50: < 100 nM

C[C@@H]1CN(C)CCN1Cc1ccc(-c2ccc(CO[C@H]3CCC[C@@H]3NC(=O)c3cc(-c4cnn(C)c4)cnc3N)cc2)cc1 [Example 187, 2-amino-N-((1S,2S)-2-((4′-(((R)-2,4-dimethylpiperazin-1-yl)-methyl)-[1,1′-biphenyl]-4-yl)methoxy)cyclopentyl)-5-(1-methyl-1H-pyrazol-4-yl)-nicotinamide]
GI50: < 100 nM

CCC1CN(Cc2ccc(-c3ccc(CO[C@H]4CCC[C@@H]4NC(=O)c4cc(-c5cnn(C)c5)cnc4N)cc3)cc2)CCN1C (stereo partly drawn) [Example 188, 2-amino-N-((1S,2S)-2-((4′-((3-ethyl-4-methylpiperazin-1-yl)-methyl)-[1,1′-biphenyl]-4-yl)methoxy)cyclopentyl)-5-(1-methyl-1H-pyrazol-4-yl)-nicotinamide]
GI50: < 100 nM

C[C@@H]1CN(Cc2ccc(-c3ccc(CO[C@H]4CCC[C@@H]4NC(=O)c4cc(-c5cnn(C)c5)cnc4N)cc3)cc2)C[C@H](C)N1 [Example 189, 2-amino-N-((1S,2S)-2-((4′-((cis-3,5-dimethylpiperazin-1-vi)-methyl)-[1,1′-biphenyl]-4-yl)methoxy)cyclopentyl)-5-(1-methyl-1H-pyrazol-4-yl)-nicotinamide]
GI50: 100 to 500 nM

CC1CN[C@@H](C)CN1Cc1ccc(-c2ccc(CO[C@H]3CCC[C@@H]3NC(=O)c3cc(-c4cnn(C)c4)cnc3N)cc2)cc1 (stereo partly drawn) [Example 191, 2-amino-N-((1S,2S)-2-((4′-((trans-2,5-dimethylpiperazin-1-yl)methyl)-[1,1′-biphenyl]-4-yl)methoxy)cyclopentyl)-5-(1-methyl-1H-pyrazol-4-yl)nicotinamide]
GI50: 100 to 500 nM

CN(C)C1CCN(Cc2ccc(-c3ccc(CO[C@H]4CCC[C@@H]4NC(=O)c4cc(-c5cnn(C)c5)cnc4N)cc3)cc2)C1 (stereo partly drawn) [Example 193, 2-amino-N-((1S,2S)-2-((4′-((3-(dimethylamino)pyrrolidin-1-yl)methyl)-[1,1′-biphenyl]-4-yl)methoxy)cyclopentyl)-5-(1-methyl-1H-pyrazol-4-yl)nicotinamide]
GI50: < 100 nM

CN1CCN(Cc2ccc(-c3ccc(CO[C@H]4CCC[C@@H]4NC(=O)c4nc(-c5cnn(C)c5)cnc4N)cc3)cc2)CC1 [Example 194, 3-amino-6-(1-methyl-1H-pyrazol-4-yl)-N-((1S,2S)-2-((4′-((4-methylpiperazin-1-yl)methyl)-[1,1′-biphenyl]-4-yl)methoxy)cyclopentyl)pyrazine-2-carboxamide]
GI50: < 100 nM

CN1CCN(Cc2ccc(-c3ccc(CO[C@H]4CCC[C@@H]4NC(=O)c4cc(-c5cnn(C)c5)cnc4N)cc3)cc2F)CC1 [Example 195, 2-amino-N-((1S,2S)-2-((3′-fluoro-4′-((4-methylpiperazin-1-yl)-methyl)-[1,1′-biphenyl]-4-yl)methoxy)cyclopentyl)-5-(1-methyl-1H-pyrazol-4-yl)-nicotinamide]
GI50: < 100 nM

CN1CCN(Cc2ccc(-c3ccc(CO[C@H]4CCC[C@@H]4NC(=O)c4cc(-c5cnn(C)c5)cnc4N)cc3)cc2C(F)(F)F)CC1 [Example 197, 2-amino-5-(1-methyl-1H-pyrazol-4-yl)-N-((1S,2S)-2-((4′-((4-methylpiperazin-1-yl)methyl)-3′-(trifluoromethyl)-[1,1′-biphenyl]-4-yl)methoxy)-cyclopentyl)nicotinamide]
GI50: < 100 nM

Cc1cc(-c2ccc(CO[C@H]3CCC[C@@H]3NC(=O)c3cc(-c4cnn(C)c4)cnc3N)cc2)ccc1CN1CCN(C)CC1 [Example 198, 2-amino-5-(1-methyl-1H-pyrazol-4-yl)-N-((1S,2S)-2-((3′-methyl-4′-((4-methylpiperazin-1-yl)methyl)-[1,1′-biphenyl]-4-yl)methoxy)cyclopentyl)-nicotinamide]
GI50: < 100 nM

CN1CCN(Cc2ccc(-c3ccc(CO[C@H]4CCC[C@@H]4NC(=O)c4cc(-c5cnn(C)c5)cnc4N)cc3)cc2O)CC1 [Example 199, 2-amino-N-((1S,2S)-2-((3′-hydroxy-4′-((4-methylpiperazin-1-yl)methyl)-[1,1′-biphenyl]-4-yl)methoxy)cyclopentyl)-5-(1-methyl-1H-pyrazol-4-yl)nicotinamide]
GI50: < 100 nM

Cn1cc(-c2cnc(N)c(C(=O)N[C@H]3CCC[C@@H]3OCc3ccc(-c4ccc(CN5CCN(CCO)CC5)c(C(F)(F)F)c4)cc3)c2)cn1 [Example 205, 2-amino-N-((1S,2S)-2-((4′-((4-(2-hydroxyethyl)piperazin-1-yl)methyl)-3′-(trifluoromethyl)-[1,1′-biphenyl]-4-yl)methoxy)cyclopentyl)-5-(1-methyl-1H-pyrazol-4-yl)nicotinamide]
GI50: < 100 nM
